Laboratory results: patent US7999132B2, “Anthranilic acid derivative or salt thereof” (Toyama Chemical Co., Ltd., priority 2004, dated 2011)

Tested on: MMP-13
Assay: MMP-13 Production Inhibition Test
Type: cell-based, human
Conditions: SW1353 cells stimulated with IL-1β 10 ng/mL, MMP-13 in culture supernatant by ELISA 16 hours after stimulation; for inhibition at 30 µM: Homo sapiens, 30 μmol/L, read-out: Inhibition rate (%) at 30 μmol/L
Method: MMP-13 Production Inhibition Test
6.8×10^3 human cartilage derived cell line SW1353 cells were suspended in 100 μL of Dulbecco modified Eagle's medium supplemented with 10% fetal calf serum, plated on 96-well plates and cultured for 3 days. After the culture medium was changed to Dulbecco modified Eagle's medium containing 0.2% lactalbumin hydrolysate and the cells were cultured for 6 hours, […] were added and then IL-1β was added to obtain the final concentration of 10 ng/mL 1 hour later. 16 hours after the stimulation, supernatant was collected and the amount of MMP-13 in the culture supernatant was determined with an ELISA kit (Amersham). The inhibition rate was calculated from the amount of MMP-13 in the presence of a test compound assuming that the amount of MMP-13 was 100% in the absence of the test compound.

O=C(Nc1cc(-c2ccccc2)ccc1C(=O)O)c1ccccc1 [Example 4, 2-(benzamido)-4-phenylbenzoic acid] showed an inhibition at 30 µM of 80%.
Compound O=C(Nc1cc(-c2cccs2)ccc1C(=O)O)c1ccccc1 [Example 7, 2-(Benzamido)-4-(thiophen-2-yl)benzoic acid] has an inhibition at 30 µM of 91%.
With O=C(Nc1cc(-c2cc3ccccc3o2)ccc1C(=O)O)c1ccccc1 [Example 8, 2-(benzamido)-4-(benzofuran-2-yl)benzoic acid] the inhibition at 30 µM was 95%.
With O=C(Nc1cc(-c2ccc3c(c2)OCO3)ccc1C(=O)O)c1ccccc1 [Example 11, 2-(benzamido)-4-(benzo[1,3]dioxol-5-yl)benzoic acid] the inhibition at 30 µM was 92%.
Work on O=C(Nc1cc(-c2ccc3c(c2)OCCO3)ccc1C(=O)O)c1ccccc1 [Example 15, 2-(Benzamido)-4-(2,3-dihydrobenzo[1,4]dioxin-6-yl)benzoic acid] yielded an inhibition at 30 µM of 88%.
In the case of O=C(Nc1cc(-c2ccc(F)cc2F)ccc1C(=O)O)c1ccccc1 [Example 19, 2-(benzamido)-4-(2,4-difluorophenyl)benzoic acid], the inhibition at 30 µM is reported as 94%.
For COc1ccc(-c2ccc(C(=O)O)c(NC(=O)c3ccccc3)c2)cc1 [Example 22, 2-(Benzamido)-4-(4-methoxyphenyl)benzoic acid], the inhibition at 30 µM was 81%.
O=C(Nc1cc(/C=C/c2ccccc2)ccc1C(=O)O)c1ccccc1 [Example 24, 2-(benzamido)-4-((E)-2-phenylvinyl)benzoic acid] showed an inhibition at 30 µM of 92%.
For O=C(Nc1cc(CCCCc2ccccc2)ccc1C(=O)O)c1ccccc1 [Example 33, 2-(benzamido)-4-(4-phenylbutyl)benzoic acid], the inhibition at 30 µM was 97%.
Compound O=C(Nc1cc(Oc2ccccc2)ccc1C(=O)O)c1ccc2c(c1)OCO2 [Example 80, 2-(Benzo[1,3]dioxole-5-carboxamido)-4-phenoxybenzoic acid] has an inhibition at 30 µM of 92%.
O=C(Nc1cc(Oc2ccccc2)ccc1C(=O)O)c1ccc2c(c1)OCCO2 [Example 83, 2-(2,3-Dihydrobenzo[1,4]dioxin-6-carboxamido)-4-phenoxybenzoic acid] was tested, and the inhibition at 30 µM was 93%.
O=C(O)c1ccc(Oc2ccccc2)cc1NC(=O)C1CCCCC1 [Example 85, 2-(Cyclohexanecarboxamido)-4-phenoxybenzoic acid] gave an inhibition at 30 µM of 60%.
In the case of O=C(O)c1ccc(Oc2ccccc2)cc1NS(=O)(=O)c1ccccc1 [Example 88, 2-(Benzenesulfonamido)-4-phenoxybenzoic acid], the inhibition at 30 µM is reported as 80%.
Compound O=C(Nc1cc(Oc2ccccc2)ccc1C(=O)O)c1ccc(F)cc1 [Example 89, 2-(4-Fluorobenzamido)-4-phenoxybenzoic acid] has an inhibition at 30 µM of 94%.
Work on O=C(C=Cc1ccccc1)Nc1cc(Oc2ccccc2)ccc1C(=O)O [Example 91, 2-(Cinnamamido)-4-phenoxybenzoic acid] yielded an inhibition at 30 µM of 95%.
For O=C(Nc1cc(Oc2ccccc2)ccc1C(=O)O)c1ccc2occc2c1 [Example 96, 2-(Benzofuran-5-carboxamido)-4-phenoxybenzoic acid], the inhibition at 30 µM was 96%.
Compound O=C(Nc1cc(Oc2ccccc2)ccc1C(=O)O)c1nc2ccccc2s1 [Example 97, 2-(Benzothiazole-2-carboxamido)-4-phenoxybenzoic acid] has an inhibition at 30 µM of 97%.
O=C(Nc1cc(OCc2ccccc2)ccc1C(=O)O)c1ccccc1 [Example 99, 2-(benzamido)-4-(benzyloxy)benzoic acid] gave an inhibition at 30 µM of 71%.
With O=C(Nc1cc(OC2CCCCC2)ccc1C(=O)O)c1ccccc1 [Example 105, 2-(benzamido)-4-(cyclohexyloxy)benzoic acid] the inhibition at 30 µM was 64%.
O=C(Nc1cc(/C=C/c2cc(F)cc(F)c2)ccc1C(=O)O)c1ccccc1 [Example 130, 2-(Benzamido)-4-((E)-2-(3,5-difluorophenyl)vinyl)benzoic acid] was tested, and the inhibition at 30 µM was 96%.
O=C(Nc1cc(/C=C/c2cccc(Cl)c2)ccc1C(=O)O)c1ccccc1 [Example 134, 2-(Benzamido)-4-((E)-2-(3-chlorophenyl)vinyl)benzoic acid] gave an inhibition at 30 µM of 99%.
O=C(Nc1cc(CCc2ccc(OC(F)(F)F)cc2)ccc1C(=O)O)c1ccccc1 [Example 138, 2-(Benzamido)-4-(2-(4-(trifluoromethoxy)phenyl)ethyl)benzoic acid] was tested, and the inhibition at 30 µM was 95%.
For O=C(Nc1cc(/C=C/c2ccc(F)cc2F)ccc1C(=O)O)c1ccccc1 [Example 141, 2-(benzamido)-4-((E)-2-(2,4-difluorophenyl)vinyl)benzoic acid], the inhibition at 30 µM was 95%.
O=C(Nc1cc(/C=C/c2cccc3nsnc23)ccc1C(=O)O)c1ccccc1 [Example 146, 2-(Benzamido)-4-((E)-2-(2,1,3-benzothiadiazol-4-yl)vinyl)benzoic acid] gave an inhibition at 30 µM of 97%.
Compound O=C(Nc1cc(-c2ccc(F)cc2F)ccc1C(=O)O)c1ccc(F)cc1 [Example 150, 4-(2,4-difluorophenyl)-2-(4-fluorobenzamido)benzoic acid] has an inhibition at 30 µM of 96%.
COc1cccc(/C=C/c2ccc(C(=O)O)c(NC(=O)c3ccc4c(c3)OCO4)c2)c1 [Example 157, 2-(Benzo[1,3]dioxole-5-carboxamido)-4-((E)-2-(3-methoxyphenyl)vinyl)benzoic acid] showed an inhibition at 30 µM of 98%.
Compound O=C(Nc1cc(-c2cccc(Cl)c2)ccc1C(=O)O)c1ccc2c(c1)OCO2 [Example 163, 2-(Benzo[1,3]dioxole-5-carboxamido)-4-(3-chlorophenyl)benzoic acid] has an inhibition at 30 µM of 98%.
In the case of O=C(Nc1cc(-c2ccc(O)cc2)ccc1C(=O)O)c1ccc(C(F)(F)F)cc1 [Example 176, 4-(4-Hydroxyphenyl)-2-(4-(trifluoromethyl)benzamido)benzoic acid], the inhibition at 30 µM is reported as 98%.
Work on Cc1cccc(C(=O)Nc2cc(-c3ccc(F)cc3F)ccc2C(=O)O)c1C [Example 189, 4-(2,4-difluorophenyl)-2-(2,3-dimethylbenzamido)benzoic acid] yielded an inhibition at 30 µM of 96%.
For O=C(Nc1cc(-c2cccc(Cl)c2)ccc1C(=O)O)c1ccc(O)cc1 [Example 196, 4-(3-chlorophenyl)-2-(4-hydroxybenzamido)benzoic acid], the inhibition at 30 µM was 97%.
O=C(Nc1cc(-c2ccc(Cl)cc2)ccc1C(=O)O)c1ccccc1 [Example 212, 2-(Benzamido)-4-(4-chlorophenyl)benzoic acid] was tested, and the inhibition at 30 µM was 95%.
In the case of O=C(Nc1cc(-c2c(F)cccc2F)ccc1C(=O)O)c1ccccc1 [Example 217, 2-(Benzamido)-4-(2,6-difluorophenyl)benzoic acid], the inhibition at 30 µM is reported as 68%.
Work on O=C(Nc1cc(-c2cccc(Cl)c2)ccc1C(=O)O)c1ccccc1 [Example 222, 2-(benzamido)-4-(3-chlorophenyl)benzoic acid] yielded an inhibition at 30 µM of 98%.
In the case of Cc1cccc(-c2ccc(C(=O)O)c(NC(=O)c3ccccc3)c2)c1C [Example 230, 2-(Benzamido)-4-(2,3-dimethylphenyl)benzoic acid], the inhibition at 30 µM is reported as 95%.
With O=C(Nc1cc(-c2cccc(OC(F)(F)F)c2)ccc1C(=O)O)c1ccccc1 [Example 234, 2-(Benzamido)-4-(3-(trifluoromethoxy)phenyl)benzoic acid] the inhibition at 30 µM was 99%.
With Cc1ccc(-c2ccc(C(=O)O)c(NC(=O)c3ccccc3)c2)cc1 [Example 240] the “Inhibition rate (%) at 30 μmol/L” value was 94%.
For O=C(Nc1cc(-c2ccc(O)cc2)ccc1C(=O)O)c1ccccc1 [Example 243, 2-(benzamido)-4-(4-hydroxyphenyl)benzoic acid], the inhibition at 30 µM was 96%.
Work on O=C(Nc1cc(-c2c(F)cccc2Cl)ccc1C(=O)O)c1ccccc1 [Example 251, 2-(benzamido)-4-(2-chloro-6-fluorophenyl)benzoic acid] yielded an inhibition at 30 µM of 83%.
O=C(O)c1ccc(CCc2ccccc2)cc1NC(=O)c1ccccc1C(F)(F)F [Example 255, 4-Phenethyl-2-(2-(trifluoromethyl)benzamido)benzoic acid] gave an inhibition at 30 µM of 91%.
With Cc1ccc(C(=O)Nc2cc(CCc3ccccc3)ccc2C(=O)O)cc1C [Example 261, 2-(3,4-Dimethylbenzamido)-4-phenethylbenzoic acid] the inhibition at 30 µM was 94%.
For Cc1cccc(C(=O)Nc2cc(CCc3ccccc3)ccc2C(=O)O)c1C [Example 262, 2-(2,3-Dimethylbenzamido)-4-phenethylbenzoic acid], the inhibition at 30 µM was 93%.
O=C(Nc1cc(CCc2ccccc2)ccc1C(=O)O)c1ccc(C(F)(F)F)cc1 [Example 264, 4-Phenethyl-2-(4-(trifluoromethyl)benzamido)benzoic acid] was tested, and the inhibition at 30 µM was 94%.
Compound O=C(Nc1cc(CCc2ccccc2)ccc1C(=O)O)c1cncc(-n2cccc2)c1 [Example 276, 4-Phenethyl-2-(5-(1H-pyrrol-1-yl)pyridine-3-carboxamido)benzoic acid] has an inhibition at 30 µM of 86%.
In the case of O=C(Nc1cc(-c2ccccc2)ccc1C(=O)O)c1ccccc1F [Example 282], the inhibition at 30 µM is reported as 75%.
O=C(Nc1cc(-c2ccccc2)ccc1C(=O)O)c1cccs1 [Example 301, 4-Phenyl-2-(thiophene-2-carboxamido)benzoic acid] showed an inhibition at 30 µM of 80%.
In the case of O=C(Nc1cc(-c2ccccc2)ccc1C(=O)O)c1ccc(Cl)cc1 [Example 316, 2-(4-Chlorobenzamido)-4-phenylbenzoic acid], the inhibition at 30 µM is reported as 96%.
O=C(O)c1ccc(-c2ccccc2)cc1NC(=O)c1ccc(C(F)(F)F)cc1C(F)(F)F [Example 318, 4-Phenyl-2-(2,4-bis(trifluoromethyl)benzamido)benzoic acid] showed an inhibition at 30 µM of 95%.
With Cc1cccc(C(=O)Nc2cc(Oc3ccccc3)ccc2C(=O)O)c1 [Example 325, 2-(3-Methylbenzamido)-4-phenoxybenzoic acid] the inhibition at 30 µM was 91%.
